# Reference: US20150329558A1, “FUSED HETEROCYCLIC COMPOUNDS AS ION CHANNEL MODULATORS” (Gilead Sciences, Inc., priority 2011, published 2015)
# Target: T1, Human Nav1.2 (Homo sapiens, UniProt Q99250)
# T1 construct: expressed in transfected cells
# Assay: Nav1.2 use-dependent block, whole-cell voltage clamp
# Assay type: cell-based
# Details: use-dependent block 10 Hz, read-out: NAv1.2*-CHAN TEST-UDB-10 HZ-
# Description: Wild-type (WT) cDNA stably transfected in Chinese hamster ovary (CHO) cells is used to record INa. Unless otherwise noted, all reagents are purchased from Sigma-Aldrich (St Louis, Mo., U.S.A.).
# Whole-cell voltage-clamp recordings are used to measure the biophysical properties of WT. Briefly, the pipette solution consists of (in mM) 110 CsF, 10 NaF, 20 CsCl, 2 EGTA, 10 HEPES, with a pH of 7.35 and osmolarity of 300 mOsmol/kg. The bath (control) solution contains in (mM): 145 NaCl, 4 KCl, 1.8 CaCl2, 1 MgCl2, 10 dextrose, 10 HEPES, with a pH of 7.35 and osmolarity of 310 mOsmol/kg. Cells are allowed to stabilize for 10 min after establishment of the whole-cell configuration before current is measured. Series resistance is compensated 90% to assure that the command potential is reached within microseconds with a voltage error <2 mV. Leak currents are subtracted by using an online P/4 procedure and all currents are low-pass Bessel filtered at 5 kHz and digitized at 50 kHz.
# Tonic block of peak current is measured using a step to −10 mV (20 ms) from a holding potential of −120 mV (0.2 Hz). Use-dependent block of peak current is measured during pulse number 300 of a pulse train (−10 mV, 5 ms, 300 pulses, 10 Hz or 25 Hz) from a holding potential of −120 mV. Two sequential pulse train stimulations are averaged to obtain mean current traces for each recording condition, which are then used for offline subtraction and analysis.
# For use-dependent studies, cells are stimulated with depolarizing pulse trains (−10 mV, 5 ms, 300 pulses, 10 and 25 Hz) from a holding potential of −120 mV. Currents are then normalized to the peak current recorded in response to the first pulse in each frequency train. For tonic block studies, peak current is evaluated in response to a 20 ms depolarization to −10 mV (0.2 Hz). Data analysis is performed using Clampfit 9.2 (Axon Instruments, Union City, Calif., U.S.A), Excel 2002 (Microsoft, Seattle, Wash., U.S.A.), and OriginPro 7.0 (OriginLab, Northampton, Mass., U.S.A) software. Results are presented as mean±SEM.
# A stock solution of 10 mM compound of Formula I is prepared in 0.1 M HCl or DMSO. A fresh dilution of the compound of Formula I in the bath solution is prepared every experimental day and the pH is readjusted to 7.35 as necessary. The final DMSO concentration was kept at 0.1% in all solutions. Direct application of the perfusion solution to the clamped cell is achieved using the Perfusion Pencil system (Automate, Berkeley, Calif.). Direct cell perfusion is driven by gravity at a flow rate of 350 μL/min using a 250 micron tip. This system sequesters the clamped cell within a perfusion stream and enables complete solution exchange within 1 second. The clamped cell is perfused continuously starting immediately after establishing the whole-cell configuration. Control currents are measured during control solution perfusion.
# Solutions are perfused for three minutes prior to current recordings to allow equilibrium (tonic) drug block. Tonic block of peak currents is measured from this steady-state condition. Three sequential current traces are averaged to obtain a mean current for each recording. The mean current traces are utilized for offline analysis. Use-dependent block of peak current is measured during pulse number 300 of the pulse train, (−10 mV, 5 ms, 300 pulses, 10 Hz) from a holding potential of −120 mV. Two sequential pulse train stimulations are averaged to obtain mean current traces for each recording condition, which are then used for offline subtraction and analysis. Where appropriate, concentration inhibition curves are fit with the Hill equation: I/Imax=1/[1+10̂(log IC50−I)*k], where IC50 is the concentration that produces half inhibition and k is the Hill slope factor.
# T1 sequence (Q99250 whole entry): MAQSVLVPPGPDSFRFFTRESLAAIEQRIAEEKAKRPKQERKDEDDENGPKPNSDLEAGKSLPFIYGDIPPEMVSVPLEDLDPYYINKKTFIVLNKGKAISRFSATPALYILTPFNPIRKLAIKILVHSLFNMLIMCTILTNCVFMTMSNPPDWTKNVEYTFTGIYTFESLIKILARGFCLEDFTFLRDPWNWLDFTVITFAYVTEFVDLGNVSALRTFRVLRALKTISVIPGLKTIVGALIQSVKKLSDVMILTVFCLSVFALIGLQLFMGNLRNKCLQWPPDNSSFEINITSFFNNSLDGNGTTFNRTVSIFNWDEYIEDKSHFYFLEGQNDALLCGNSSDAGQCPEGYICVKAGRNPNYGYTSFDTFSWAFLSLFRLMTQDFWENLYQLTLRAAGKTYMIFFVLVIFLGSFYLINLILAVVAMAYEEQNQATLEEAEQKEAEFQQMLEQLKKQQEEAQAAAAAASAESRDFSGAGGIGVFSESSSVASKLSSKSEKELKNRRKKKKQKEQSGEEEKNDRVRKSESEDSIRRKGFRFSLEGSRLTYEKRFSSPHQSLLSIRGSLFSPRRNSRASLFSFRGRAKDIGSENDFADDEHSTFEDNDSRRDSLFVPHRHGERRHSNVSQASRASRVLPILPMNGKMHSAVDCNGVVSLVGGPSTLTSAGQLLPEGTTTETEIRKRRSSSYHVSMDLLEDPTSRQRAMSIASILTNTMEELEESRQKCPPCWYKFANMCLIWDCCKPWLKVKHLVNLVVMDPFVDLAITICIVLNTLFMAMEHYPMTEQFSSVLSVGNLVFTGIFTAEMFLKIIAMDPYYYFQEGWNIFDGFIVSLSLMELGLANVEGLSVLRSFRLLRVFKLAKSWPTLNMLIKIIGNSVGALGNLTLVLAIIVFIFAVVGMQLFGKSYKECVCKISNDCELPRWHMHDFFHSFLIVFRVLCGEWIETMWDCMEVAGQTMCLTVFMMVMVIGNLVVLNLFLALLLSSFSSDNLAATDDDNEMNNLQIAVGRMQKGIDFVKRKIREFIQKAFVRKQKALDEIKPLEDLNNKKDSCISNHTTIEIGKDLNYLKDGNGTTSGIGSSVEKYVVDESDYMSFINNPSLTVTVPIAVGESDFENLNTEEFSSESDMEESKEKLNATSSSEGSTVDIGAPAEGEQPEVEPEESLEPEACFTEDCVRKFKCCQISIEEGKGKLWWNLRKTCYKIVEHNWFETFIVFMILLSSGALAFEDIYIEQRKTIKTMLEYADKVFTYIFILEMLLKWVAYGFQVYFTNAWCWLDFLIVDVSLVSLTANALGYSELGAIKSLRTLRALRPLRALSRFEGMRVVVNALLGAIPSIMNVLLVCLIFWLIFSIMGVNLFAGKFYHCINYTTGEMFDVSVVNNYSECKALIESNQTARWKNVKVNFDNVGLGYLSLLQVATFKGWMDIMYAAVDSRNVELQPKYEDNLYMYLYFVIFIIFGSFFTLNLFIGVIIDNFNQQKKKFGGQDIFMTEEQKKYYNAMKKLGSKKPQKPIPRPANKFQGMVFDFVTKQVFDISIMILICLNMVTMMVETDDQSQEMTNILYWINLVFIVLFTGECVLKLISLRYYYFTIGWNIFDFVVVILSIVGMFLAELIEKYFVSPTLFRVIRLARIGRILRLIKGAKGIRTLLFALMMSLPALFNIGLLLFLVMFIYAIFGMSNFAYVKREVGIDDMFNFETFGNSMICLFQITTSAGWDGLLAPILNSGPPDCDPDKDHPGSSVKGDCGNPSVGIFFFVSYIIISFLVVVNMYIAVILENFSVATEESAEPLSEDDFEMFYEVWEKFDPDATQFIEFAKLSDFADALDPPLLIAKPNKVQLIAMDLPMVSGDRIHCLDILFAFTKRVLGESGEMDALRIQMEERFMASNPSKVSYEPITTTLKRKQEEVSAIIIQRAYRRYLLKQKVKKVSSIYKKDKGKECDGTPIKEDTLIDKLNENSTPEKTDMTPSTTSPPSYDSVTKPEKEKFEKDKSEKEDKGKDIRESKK
row,inhibition at 1 µM [%],Compound
1,-3.2,"Cc1noc(Cn2nnc3ccc(-c4ccc(OC(F)(F)F)cc4)cc3c2=O)n1 [II-3, 3-((3-methyl-1,2,4-oxadiazol-5-yl)methyl)-6-(4-(trifluoromethoxy)phenyl)benzo[d][1,2,3]triazin-4(3H)-one]"
2,-0.7,"O=c1c2cc(-c3ccc(OC(F)(F)F)cc3)ccc2nnn1Cc1noc(C2CC2)n1 [II-14, 3-((5-cyclopropyl-1,2,4-oxadiazol-3-yl)methyl)-6-(4-(trifluoromethoxy)phenyl)benzo[d][1,2,3]triazin-4(3H)-one]"
3,16.9,"O=c1c2cc(-c3ccc(OC(F)(F)F)cc3)ccc2nnn1CCOc1ncccn1 [II-32, 3-(2-(pyrimidin-2-yloxy)ethyl)-6-(4-(trifluoromethoxy)phenyl)benzo[d][1,2,3]triazin-4(3H)-one]"
4,10.9,"N#Cc1ccnc(OCCn2nnc3ccc(-c4ccc(OC(F)(F)F)cc4)cc3c2=O)n1 [II-36, 2-(2-(4-oxo-6-(4-(trifluoromethoxy)phenyl)benzo[d][1,2,3]triazin-3(4H)-yl)ethoxy)pyrimidine-4-carbonitrile]"
5,8,"O=c1c2cc(-c3ccc(OC(F)(F)F)cc3)ccc2nnn1C1CCNCC1 [II-38, 3-(piperidin-4-yl)-6-(4-(trifluoromethoxy)phenyl)benzo[d][1,2,3]triazin-4(3H)-one]"
6,-8.2,"Cc1ncc(Cn2nnc3ccc(-c4ccc(OC(F)(F)F)cc4)cc3c2=O)o1 [II-95, 3-((2-methyloxazol-5-yl)methyl)-6-(4-(trifluoromethoxy)phenyl)benzo[d][1,2,3]triazin-4(3H)-one]"
7,5.5,"O=c1c2cc(-c3ccc(OC(F)(F)F)cc3)ccc2cnn1Cc1ncccn1 [III-5, 2-(pyrimidin-2-ylmethyl)-7-(4-(trifluoromethoxy)phenyl)phthalazin-1(2H)-one]"
8,3.5,"O=c1c2cc(-c3ccc(OC(F)(F)F)cc3)ccc2cnn1CCn1cccn1 [III-9, 2-(2-(1H-pyrazol-1-yl)ethyl)-7-(4-(trifluoromethoxy)phenyl)phthalazin-1(2H)-one]"
9,-6,"COc1cc(OC)nc(Cn2ncc3ccc(-c4ccc(OC(F)(F)F)cc4)cc3c2=O)n1 [III-19, 2-((4,6-dimethoxypyrimidin-2-yl)methyl)-7-(4-(trifluoromethoxy)phenyl)phthalazin-1 (2H)-one]"
10,28.8,"O=c1c2cc(-c3ccc(OC(F)(F)F)cc3)ccc2cnn1CCOc1ncccn1 [III-28, 2-(2-(pyrimidin-2-yloxy)ethyl)-7-(4-(trifluoromethoxy)phenyl)phthalazin-1 (2H)-one]"
11,7.1,"Cc1noc(Cn2cnc3ccc(-c4ccc(OC(F)(F)F)cc4)cc3c2=O)n1 [IV-6, 3-((3-methyl-1,2,4-oxadiazol-5-yl)methyl)-6-(4-(trifluoromethoxy)phenyl)quinazolin-4(3H)-one]"
12,8,"Cc1nc(Cn2cnc3ccc(-c4ccc(OC(F)(F)F)cc4)cc3c2=O)no1 [IV-9, 3-((5-methyl-1,2,4-oxadiazol-3-yl)methyl)-6-(4-(trifluoromethoxy)phenyl)quinazolin-4(3H)-one]"
13,3.8,"O=C1c2cc(-c3ccc(OC(F)(F)F)cc3)ccc2CCN1Cc1ncccn1 [IX-1, 2-(pyrimidin-2-ylmethyl)-7-(4-(trifluoromethoxy)phenyl)-3,4-dihydroisoquinolin-1(2H)-one]"
14,-4.1,"O=C1c2cc(-c3ccc(C(F)(F)F)cc3)ccc2CCN1Cc1ncccn1 [IX-3, 2-(pyrimidin-2-ylmethyl)-7-(4-(trifluoromethyl)phenyl)-3,4-dihydroisoquinolin-1(2H)-one]"
15,8.62,"O=C(c1ncccn1)N1CCc2ccc(-c3ccc(C(F)(F)F)cc3)cc2C1 [IX-7, pyrimidin-2-yl(7-(4-(trifluoromethyl)phenyl)-3,4-dihydroisoquinolin-2(1H)-yl)methanone]"
16,10.4,"O=C(c1cccnn1)N1CCc2ccc(-c3ccc(C(F)(F)F)cc3)cc2C1 [IX-17, Pyridazin-3-yl(7-(4-(trifluoromethyl)phenyl)-3,4-dihydroisoquinolin-2 (1H)-yl) methanone]"
17,16.8,"Cn1cnc(C(=O)N2CCc3ccc(-c4ccc(C(F)(F)F)cc4)cc3C2)c1 [IX-39, (1-methyl-1H-imidazol-4-yl)(7-(4-(trifluoromethyl)phenyl)-3,4-dihydroisoquinolin-2(1H)-yl)methanone]"
18,16,"O=C1c2cc(-c3ccc(C(F)(F)F)cc3)ccc2OCN1Cc1ccccn1 [VIII-1, 3-(pyridin-2-ylmethyl)-6-(4-(trifluoromethyl)phenyl)-2H-benzo[e][1,3]oxazin-4(3H)-one]"
19,11.7,"O=C1c2cc(-c3ccc(OC(F)(F)F)cc3)ccc2OCN1Cc1ccccn1 [VIII-3, 3-(pyridin-2-ylmethyl)-6-(4-(trifluoromethoxy)phenyl)-2H-benzo[e][1,3]oxazin-4(3H)-one]"
20,18.2,"CC1Oc2ccc(-c3ccc(OC(F)(F)F)cc3)cc2C(=O)N1Cc1ncccn1 (stereo not shown) [VIII-7, 2-methyl-3-(pyrimidin-2-ylmethyl)-6-(4-(trifluoromethoxy)phenyl)-2H-benzo[e][1,3]oxazin-4(3H)-one]"
21,17.6,"O=C1c2cc(-c3ccc(OC(F)(F)F)cc3)ccc2OCN1Cc1ncccn1 [VIII-20, 3-(pyrimidin-2-ylmethyl)-6-(4-(trifluoromethoxy)phenyl)-2H-benzo[e][1,3]oxazin-4(3H)-one]"

# Tested on: anesthetized rabbits
# Assay: Ischemia-induced ST segment elevation in anesthetized rabbits
# Assay type: in vivo
# Details: 0.3 μM plasma concentration, rabbit, 15 min LAD ischemia, iv bolus
# Protocol: This study was undertaken to determine the anti-ischemic effects of compounds of the present invention in an in vivo rabbit model.
# Female New Zealand rabbits (3.0-4.0 kg) were purchased from Western Oregon Rabbitry. Animals were housed on a 12-h light and dark cycle and received standard laboratory chow and water. All experiments were performed in accordance with the Guide for the Care and Use of Laboratory Animals published by The National Research Council and with the experimental protocol approved by the Institutional Animal Care Committee of Gilead Sciences, Inc.
# Rabbits were anesthetized with ketamine (35 mg/kg) and xylazine (5 mg/kg) intramuscular injection (im). A tracheotomy was performed and the trachea was intubated with an endotracheal tube. The animal was ventilated with room air supplemented with oxygen using a pressure control animal ventilator (Kent Scientific Corp., Torrington, Conn.) at a respiratory rate of 40 strokes/min and peak inspiration pressure of 10 mmH2O, which was adjusted to keep blood gases and pH within the physiological range (iSTAT clinic analyzer, Heska Corp.; Waukesha, Wis.). The left femoral artery was cannulated for the measurement of blood pressure (BP). Blood samples were also withdrawn from femoral artery. The right external jugular vein was cannulated for drug/vehicle administration. Needle electrodes were inserted subcutaneously into the limbs for recording of the surface electrocardiogram (ECG). The heart was exposed via an incision in the 4th intercostal space (4th and/or 5th ribs were cut for a clear surgical vision). The chest was opened and a pericardial cradle was formed using 4 retractors. A coronary artery occluder, comprised of a snare made of 5 cm PE-10 tubing with a 6-0 Prolene polypropylene suture in it, was placed loosely around the left anterior descending artery (LAD) at its origin. Two unipolar electrodes, made with teflon coated silver wire attached to a small patch of filter paper, were attached on the surface of the ischemic and normal regions of the left ventricle to record epicardial electrocardiogram. Reference electrodes were placed in the open incision of the neck. The body temperature of the animal was monitored via a rectal thermometer and maintained at 37-40° C. by adjusting the surface temperature of the surgical table. Regional ischemia (15 min) was induced by ligating the LAD followed by 15 min of reperfusion caused by releasing the ligation. The heart was excised at the end of the experiment and the LAD was re-ligated. The ischemic area was visualized by perfusing the heart with 1% Evans blue in saline and calculated as a percentage of total ventricular weight. Rabbits with ischemic area less than 10% or larger than 25% were excluded from the analysis. […]
row,Compound,area under curve (AUC) for the ST segment height reduced (vs. control) [%]
1,"O=c1c2cc(-c3ccc(OC(F)(F)F)cc3)ccc2nnn1Cc1noc(C2CC2)n1 [II-14, 3-((5-cyclopropyl-1,2,4-oxadiazol-3-yl)methyl)-6-(4-(trifluoromethoxy)phenyl)benzo[d][1,2,3]triazin-4(3H)-one]",19

# Same assay, conditions: 0.7 μM plasma concentration, rabbit, 15 min LAD ischemia, iv bolus
row,Compound,area under curve (AUC) for the ST segment height reduced (vs. control) [%]
1,"O=c1c2cc(-c3ccc(OC(F)(F)F)cc3)ccc2nnn1Cc1noc(C2CC2)n1 [II-14, 3-((5-cyclopropyl-1,2,4-oxadiazol-3-yl)methyl)-6-(4-(trifluoromethoxy)phenyl)benzo[d][1,2,3]triazin-4(3H)-one]",75

# Same assay, conditions: at the plasma concentration levels studied, rabbit
row,Compound,"effect on blood pressure (BP), heart rate (HR) and ECG intervals prior to the ischemia"
1,"O=c1c2cc(-c3ccc(OC(F)(F)F)cc3)ccc2nnn1Cc1noc(C2CC2)n1 [II-14, 3-((5-cyclopropyl-1,2,4-oxadiazol-3-yl)methyl)-6-(4-(trifluoromethoxy)phenyl)benzo[d][1,2,3]triazin-4(3H)-one]",no significant effect

# Same assay, conditions: rabbit, iv bolus 0.1, 0.2 and 0.4 mg/kg
row,Compound,ischemia-induced ST elevation
1,"O=c1c2cc(-c3ccc(OC(F)(F)F)cc3)ccc2nnn1Cc1noc(C2CC2)n1 [II-14, 3-((5-cyclopropyl-1,2,4-oxadiazol-3-yl)methyl)-6-(4-(trifluoromethoxy)phenyl)benzo[d][1,2,3]triazin-4(3H)-one]",dose-dependently prevented the ischemia-induced ST elevation
